The structures appear in SMILES notation. Where “and” joins values, the source holds several entries; their conditions need not be identical. Equal entries are not always repeated. Toxic doses and inconclusive results are not listed.

This test concerns BDF1 mice, P388/ADR leukemia ip, median survival T/C. Briefly: NCI In Vivo Anticancer Drug Screen. Data for tumor model P388 Leukemia resistant to Adriamycin; NSC 123127, Developed at Scr 06 and 41 (intraperitoneal) in B6D2F1 (BDF1) mice. Conditions: endpoint: median survival time, higher = longer survival. As to the method: The antitumor activity of compounds was measured in mice bearing transplantable tumors. Survival or tumor size were measured and the results are expressed as the measurement made in the treated group (T) divided by the measurement made in the vehicle treated control group (C). The tumor model used in this assay is P388 Leukemia resistant to Adriamycin; NSC 123127, Developed at Scr 06 and 41 (intraperitoneal) in B6D2F1 (BDF1) mice

[1] abbreviates: dose: 3.0 mg/kg/injection, schedule: Q04DX003 (ip), vehicle: water.
Setting [2] is: dose: 2.88 mg/kg/injection, schedule: Q04DX003 (ip), vehicle: water.
[3] abbreviates: dose: 1.73 mg/kg/injection, schedule: Q04DX003 (ip), vehicle: water.
Setting [4] is: dose: 4.8 mg/kg/injection, schedule: Q04DX003 (ip), vehicle: water.

Turning to `CC(=O)[C@]1(O)Cc2c(O)c3c(c(O)c2[C@@H](OC2CC(N)C(O)C(C)O2)C1)C(=O)c1c(O)cccc1C3=O` (stereo partly specified), the T/C was 108 % of control (dose: 0.32 mg/kg/injection, schedule: Q04DX003 (ip), vehicle: water); 118 % of control (dose: 0.39 mg/kg/injection, schedule: Q04DX003 (ip), vehicle: water); 88 % of control (dose: 0.54 mg/kg/injection, schedule: Q04DX003 (ip), vehicle: water); 123 % of control (dose: 0.65 mg/kg/injection, schedule: Q04DX003 (ip), vehicle: water).

Consider `CC(CN1CC(=O)NC(=O)C1)N1CC(=O)NC(=O)C1` (stereo unspecified), for which the T/C by setting is: (dose: 86.4 mg/kg/injection, schedule: Q04DX003 (ip), vehicle: Klucel (hydroxypropylcellulose) (HPC)) 106 % of control; (dose: 100.0 mg/kg/injection, schedule: Q04DX003 (ip), vehicle: Klucel (hydroxypropylcellulose) (HPC)) 100 % of control; (dose: 108.0 mg/kg/injection, schedule: Q04DX003 (ip), vehicle: Klucel (hydroxypropylcellulose) (HPC)) 104 % of control; (dose: 144.0 mg/kg/injection, schedule: Q04DX003 (ip), vehicle: Klucel (hydroxypropylcellulose) (HPC)) 122 % of control; (dose: 180.0 mg/kg/injection, schedule: Q04DX003 (ip), vehicle: Klucel (hydroxypropylcellulose) (HPC)) 102 % of control; (dose: 200.0 mg/kg/injection, schedule: Q04DX003 (ip), vehicle: Klucel (hydroxypropylcellulose) (HPC)) 93 % of control. Moreover, the T/C (dose: 216.0 mg/kg/injection, schedule: Q04DX003 (ip), vehicle: Klucel (hydroxypropylcellulose) (HPC)) is 107 % of control; the T/C (dose: 300.0 mg/kg/injection, schedule: Q04DX003 (ip), vehicle: Klucel (hydroxypropylcellulose) (HPC)) is 102 % of control; the T/C (dose: 400.0 mg/kg/injection, schedule: Q04DX003 (ip), vehicle: Klucel (hydroxypropylcellulose) (HPC)) was 93 % of control.

As for `O=NN(CCCl)C(=O)NCCCl`, the T/C (dose: 13.0 mg/kg/injection, schedule: Q01DX001 (ip), vehicle: saline + alcohol) is 169 % of control; the T/C (dose: 21.6 mg/kg/injection, schedule: Q01DX001 (ip), vehicle: saline + alcohol) is 499 % of control; the T/C (dose: 36.0 mg/kg/injection, schedule: Q01DX001 (ip), vehicle: saline + alcohol) is 499 % of control.

Regarding `CC[C@H]1CN2CCc3cc(OC)c(OC)cc3[C@@H]2C[C@@H]1C[C@H]1NCCc2c1[nH]c1ccc(OC)cc21`, the T/C reads like this: (dose: 10.8 mg/kg/injection, schedule: Q04DX003 (ip), vehicle: acid diluted with saline) 108 % of control; (dose: 18.0 mg/kg/injection, schedule: Q04DX003 (ip), vehicle: acid diluted with saline) 107 % of control; (dose: 30.0 mg/kg/injection, schedule: Q04DX003 (ip), vehicle: acid diluted with saline) 110 % of control.

As to `COC(=O)[C@@]12OC[C@]34[C@H]([C@@H](O)[C@@H]1O)[C@@]1(C)CC(=O)C(O)=C(C)[C@@H]1C[C@H]3OC(=O)[C@H](OC(=O)/C=C(\C)C(C)C)[C@@H]24`, the T/C by setting is: (dose: 0.65 mg/kg/injection, schedule: Q04DX003 (ip), vehicle: saline + alcohol) 113 % of control; (dose: 1.08 mg/kg/injection, schedule: Q04DX003 (ip), vehicle: saline + alcohol) 93 % of control and 97 % of control; (dose: 1.8 mg/kg/injection, schedule: Q04DX003 (ip), vehicle: saline + alcohol) 86 % of control and 90 % of control.

`COc1cccc2c1C(=O)c1c(O)c3c(c(O)c1C2=O)C[C@@](O)(C(=O)CO)C[C@@H]3OC1CC([N+](C)(C)C)C(O)C(C)O1` (stereo partly specified): the T/C runs as follows: (dose: 8.64 mg/kg/injection, schedule: Q04DX003 (ip), vehicle: water) 99 % of control; (dose: 14.4 mg/kg/injection, schedule: Q04DX003 (ip), vehicle: water) 99 % of control.

As to `CC[C@@]1(O)C[C@H](OC2CC(N(C)C)C(OC3CC(O)C(OC4CC(O)C(O)C(C)O4)C(C)O3)C(C)O2)c2c(cc3c(c2O)C(=O)c2c(O)ccc(O)c2C3=O)[C@H]1C(=O)OC` (stereo partly specified), the T/C by setting is: (dose: 1.08 mg/kg/injection, schedule: Q04DX003 (ip), vehicle: water) 106 % of control; (dose: 1.8 mg/kg/injection, schedule: Q04DX003 (ip), vehicle: water) 109 % of control; under setting [1], 120 % of control.

On to `COc1cccc2c1C(=N)c1c(O)c3c(c(O)c1C2=O)C[C@@](O)(C(C)=O)C[C@@H]3OC1CC(N)C(O)C(C)O1` (stereo partly specified), for which the T/C reads like this: (dose: 3.46 mg/kg/injection, schedule: Q04DX003 (ip), vehicle: saline) 99 % of control; (dose: 5.76 mg/kg/injection, schedule: Q04DX003 (ip), vehicle: saline) 102 % of control; (dose: 9.6 mg/kg/injection, schedule: Q04DX003 (ip), vehicle: saline) 115 % of control; (dose: 16.0 mg/kg/injection, schedule: Q04DX003 (ip), vehicle: saline) 104 % of control.

In the case of `CCCCCCCC(=O)OCC(=O)[C@]1(O)Cc2c(O)c3c(c(O)c2[C@@H](OC2CC(N)C(O)C(C)O2)C1)C(=O)c1c(OC)cccc1C3=O` (stereo partly specified), the T/C under setting [2] was 121 % of control.

On to `COc1cccc2c1C(=O)c1c(O)c3c(c(O)c1C2=O)C[C@@](O)(C(=O)CO)C[C@@H]3OC1CC(N)C(O)C(C)O1` (stereo partly specified), for which the T/C (dose: 0.65 mg/kg/injection, schedule: Q01DX009 (ip), vehicle: saline) was 107 % of control; the T/C (dose: 1.08 mg/kg/injection, schedule: Q01DX009 (ip), vehicle: saline) is 109 % of control; the T/C (dose: 1.3 mg/kg/injection, schedule: Q04DX003 (ip), vehicle: saline) is 112 % of control; the T/C (dose: 1.3 mg/kg/injection, schedule: Q04DX003 (ip), vehicle: water) is 102 % of control and 115 % of control; the T/C (dose: 1.5 mg/kg/injection, schedule: Q04DX003 (ip), vehicle: water) was 100 % of control; the T/C under setting [3] is 116 % of control. Moreover, the T/C is 110 % of control (dose: 1.8 mg/kg/injection, schedule: Q01DX009 (ip), vehicle: saline); 109 % of control (dose: 2.16 mg/kg/injection, schedule: Q04DX003 (ip), vehicle: saline); 99 % of control and 120 % of control and 102 % of control (dose: 2.16 mg/kg/injection, schedule: Q04DX003 (ip), vehicle: water); 124 % of control under setting [2]; 96 % of control (dose: 3.0 mg/kg/injection, schedule: Q01DX009 (ip), vehicle: saline); 100 % of control under setting [1]. The T/C (dose: 3.6 mg/kg/injection, schedule: Q04DX003 (ip), vehicle: saline) was 120 % of control; the T/C (dose: 3.6 mg/kg/injection, schedule: Q04DX003 (ip), vehicle: water) is 115 % of control and 122 % of control and 100 % of control; the T/C under setting [4] was 103 % of control; the T/C (dose: 6.0 mg/kg/injection, schedule: Q04DX003 (ip), vehicle: water) is 99 % of control [middle of 4 runs]; the T/C (dose: 10.0 mg/kg/injection, schedule: Q04DX003 (ip), vehicle: water) is 98 % of control; the T/C (dose: 66.7 mg/kg/injection, schedule: Q04DX003 (ip), vehicle: water) was 96 % of control.

Turning to `CC1OC(O[C@H]2/C=C/C=C/C=C/C=C/C=C/C=C/C=C/[C@H](C)[C@@H](O)[C@@H](C)[C@H](C)OC(=O)C[C@H](O)C[C@H](O)CC[C@@H](O)[C@H](O)C[C@H](O)C[C@]3(O)C[C@H](O)[C@@H](C(=O)O)[C@H](C2)O3)C(O)C(N)C1O` (stereo partly specified), for the setting “dose: 20.0 mg/kg/injection, schedule: Q04DX003 (ip), vehicle: clinical formulation”, the T/C is 93 % of control.

Turning to `COc1cccc2c1C(=O)c1c(O)c3c(c(O)c1C2=O)C[C@@](O)(/C(C)=N/NC(=O)c1ccccc1)C[C@@H]3OC1CC(N)C(O)C(C)O1` (stereo partly specified), the T/C was 107 % of control (dose: 6.5 mg/kg/injection, schedule: Q04DX003 (ip), vehicle: water); 115 % of control (dose: 10.8 mg/kg/injection, schedule: Q04DX003 (ip), vehicle: water); 105 % of control (dose: 18.0 mg/kg/injection, schedule: Q04DX003 (ip), vehicle: water).

In the case of `CCC1=C(C[C@H]2NCCc3cc(OC)c(OC)cc32)C[C@H]2c3cc(OC)c(OC)cc3CCN2C1`, the T/C reads like this: (dose: 10.8 mg/kg/injection, schedule: Q04DX003 (ip), vehicle: saline) 108 % of control; (dose: 18.0 mg/kg/injection, schedule: Q04DX003 (ip), vehicle: saline) 96 % of control; (dose: 30.0 mg/kg/injection, schedule: Q04DX003 (ip), vehicle: saline) 107 % of control.

As for `COc1cccc2c1C(=O)c1c(O)c3c(c(O)c1C2=O)C[C@@](O)(C(C)=O)C[C@@H]3OC1CC(N)C(O)C(C)O1` (stereo partly specified), the T/C reads like this: under setting [3], 122 % of control; under setting [2], 114 % of control; under setting [4], 121 % of control; (dose: 8.0 mg/kg/injection, schedule: Q04DX003 (ip), vehicle: water) 104 % of control and 107 % of control.

Source of the values: PubChem BioAssay AID182 (DTP/NCI, 2004).
